# In US8101180B2, “Anti-IGF-IR and/or anti-insulin/IGF-I hybrid receptors antibodies and uses thereof” (Pierre Fabre Medicament, priority 2002, dated 2012):
# Tests used:
# [1] = test system: noninfected Sf9 insect cells; assay: FACS labeling of noninfected Sf9 insect cells; format: binding; conditions: FACScan
# Excerpt: In FIG. 4B, Sf9 cells uniquely expressing IGF-IR are labeled with αIR3 (2) or anti-IR(3), the peak (1) representing the single cells. In FIG. 4C, Sf9 cells uniquely expressing IR are labeled with an anti-IR (3) or αIR3 (2), the peak (1) representing the single cells.
# evaluating the supernatants of hybridomas positive in the two first screenings in terms of differential recognition of IGF-IR and of IR on insect cells infected with baculoviruses respectively expressing IGF-IR or IR,
# For the immunization stage, mice were injected twice, by the subcutaneous route, with 8 μg of recombinant IGF-IR. Three days before the fusion of the cells of the […] with the cells of the murine myeloma Sp2OAg14, the mice were stimulated by an intravenous injection of 3 μg of the recombinant receptor. Fourteen days after the fusion, the supernatants of hybridomas were screened by ELISA, on plates sensitized by recombinant IGF-IR. The hybridomas whose supernatants were found positive were conserved and amplified before being tested on the FACScan so as to verify that the antibodies produced were likewise capable of recognizing native IGF-IR. In order to do this, MCF-7 cells from an estrogen-dependent tumor of the breast overexpressing IGF-IR were incubated with each of the culture supernatants produced by the hybridomas selected in ELISA. […]
# [2] = test system: DU145 tumor; assay: DU145 androgen-independent prostate tumor xenograft; format: in vivo, nude mice; conditions: 250 μg/dose/mouse twice per week i.p.
# Method: In these 4 models, the treatment was carried out twice per week i.p. at a rate of 250 μg/dose/mouse.
substance,measurement,setting,value
7C10: murine monoclonal anti-IGF-IR IgG1 secreted by the hybridoma deposited at the CNCM under the number I-2717,"MFI (Mean fluorescence intensity), Noninfected cells",[1],8.6
same,antitumor activity in DU145 model,[2],significant activity
